{
  "source": "patent US5312815A",
  "about": "“Fungicidal (+)-2-(2,4-difluorophenyl)-3-methyl-1-(1H-1,2,4-triazol-1-yl)3-(6-(1H-1, 2,4-triazol-1-yl)pyridazin-3-ylthio) butan-2-ol” (Roussel Morishita Co., Ltd., priority 1992, dated 1994)",
  "key": {"[1]": {"system": "Aspergillus fumigatus Kawasaki strain", "assay": "In vivo antifungal activity, Aspergillus fumigatus infected mice, oral", "design": "species or system mouse", "conditions": "25 mg/kg p.o. twice a day, 4 days, in 0.5% MC (ITZ: in PEG 400); for Mean Survival Days: 10 days observation", "method": "(§1) Asperoillus fumigatus Kawasaki strain having been cultured at 27° C. for 1 week was suspended in physiological saline, and the suspension (3×10^6 cells) was injected into the tail vein of a 4-week-old day male mouse (9 mice per group). Two days before the infection and on the day of the infection, 100 mg/kg of cyclophosphamide was intraperitoneally administered to each animal.\nFor comparison, compound (A) shown below which is described in EP 0421210A2, fluconazole (FCZ) and itraconazole (ITZ), were used as a comparative substance. Itraconazole was administered in a polyethylene glycol (400) solution. [drawing 4]"}, "Candida albicans": {"system": "Candida albicans", "assay": "In vitro antifungal activity, MIC on mycelium formation", "format": "cell-based", "conditions": "37° C., 24 hours, Eagle's MEM with 10% fetal bovine serum", "method": "(§2) Candida albicans (10^2 cells) or Aspergillus fumigatus (10^3 cells) was inoculated to 200 μl of an Eagle's minimum essential medium containing 10% fetal bovine serum and a test compound shown in Table 2 below at a dilution increasing by a factor of 2. The system was incubated at 37° C. for 24 hours in a 5 v/v% CO2 stream to obtain the minimum inhibitory concentration (MIC) on mycelium formation."}, "Aspergillus fumigatus": {"system": "Aspergillus fumigatus", "assay": "In vitro antifungal activity, MIC on mycelium formation", "format": "cell-based", "conditions": "37° C., 24 hours, Eagle's MEM with 10% fetal bovine serum", "method": "as §2"}, "[2]": {"system": "Aspergillus fumigatus Kawasaki strain", "assay": "In vivo antifungal activity, Aspergillus fumigatus infected mice, i.v.", "design": "species or system mouse", "conditions": "12.5 mg/kg i.v. twice a day, 4 days, Example 1 as G2-β-CyD complex, FCZ in saline", "method": "as §1, with “Aspergillus fumigatus Kawasaki” for “Asperoillus fumigatus Kawasaki”, “and the cell suspension (3×10^6” for “and the suspension (3×10^6”\n(§3) For comparison, fluconazole was used as a comparative substance."}, "[3]": {"assay": "Toxicity in maintained administration in rats", "format": "in vivo, Crj:CD male rat", "conditions": "100 or 300 mg/kg once a day, 2 weeks, in 0.5% MC", "method": "A 6-week-old Crj:CD male rat (6 rats per group) was maintained on the compound of Example 1 or fluconazole suspended in 0.5% MC at a dose of 100 mg/kg or 300 mg/kg once a day for 2 consecutive weeks. Manifestations of toxicity were observed through observation of general signs, body weight measurement, biochemical examination of blood, organ weight measurements, and postmortem examinations."}, "[4]": {"system": "Candida albicans CAA-14 strain", "assay": "In vivo antifungal activity, Candida albicans infected mice, i.v.", "design": "species or system ICR male mouse", "conditions": "5 mg/kg i.v. twice a day, 2 days, Example 1 as G2-β-CyD complex, FCZ in saline", "method": "Candida albicans CAA-14 strain having been cultured at 30° C. for 24 hours was suspended in physiological saline, and the cell suspension (5×10^6 cells) was injected into the tail vein of a 5-week-old ICR male mouse (9 mice per group). Two days before the infection and on the day of the infection, 100 mg/kg of cyclophosphamide was intraperitoneally administered to each animal.\nas §3"}},
  "data": [
    {"smiles": "CCC(C)n1ncn(-c2ccc(N3CCN(c4ccc(OCC5COC(Cn6cncn6)(c6ccc(Cl)cc6Cl)O5)cc4)CC3)cc2)c1=O", "note": "(stereo not drawn) [ITZ, itraconazole, reference compound]", "values": [
      {"measurement": "Mean Survival Days", "setting": "[1]", "result": 2.1, "unit": "days"},
      {"measurement": "Survival Number on Day 1", "setting": "[1]; of 9 mice", "result": 9},
      {"measurement": "Survival Number on Day 2", "setting": "[1]; of 9 mice", "result": 9},
      {"measurement": "Survival Number on Day 3", "setting": "[1]; of 9 mice", "result": 9},
      {"measurement": "Survival Number on Day 4", "setting": "[1]; of 9 mice", "result": 1}
    ]},
    {"smiles": "CC(C)(Sc1ccc(-n2cncn2)nn1)C(O)(Cn1cncn1)c1ccc(F)cc1F", "note": "(single isomer, unassigned; (-)) [Reference Example 12, (-)-2-(2,4-difluorophenyl)-3-methyl-1-(1H-1,2,4-triazol-1-yl)-3-(6-(1H-1,2,4-triazol-1-yl)-pyridazin-3-ylthio)butan-2-ol, reference compound]", "values": [
      {"measurement": "MIC on Mycelium Formation, C. albicans", "setting": "Candida albicans", "result": 1.56, "unit": "µg/mL"},
      {"measurement": "MIC on Mycelium Formation, A. fumigatus", "setting": "Aspergillus fumigatus", "result": 100, "unit": "µg/mL"}
    ]},
    {"smiles": "OC(Cn1cncn1)(Cn1cncn1)c1ccc(F)cc1F", "note": "[FCZ, fluconazole, reference compound]", "values": [
      {"measurement": "Mean Survival Days", "setting": "[2]; 10 days observation", "result": 2.0, "unit": "days"},
      {"measurement": "Survival Number on Day 1", "setting": "[2]; of 9 mice", "result": 9},
      {"measurement": "Survival Number on Day 2", "setting": "[2]; of 9 mice", "result": 9},
      {"measurement": "Survival Number on Day 3", "setting": "[2]; of 9 mice", "result": 0},
      {"measurement": "manifestations of toxicity", "setting": "[3]", "result": "production of hepatomegaly and enlargement of the suprarenalcapsules, with the degree thereof depending on dosage"},
      {"measurement": "Mean Survival Days", "setting": "[1]", "result": 2.0, "unit": "days"},
      {"measurement": "Survival Number on Day 1", "setting": "[1]; of 9 mice", "result": 9},
      {"measurement": "Survival Number on Day 2", "setting": "[1]; of 9 mice", "result": 9},
      {"measurement": "Survival Number on Day 3", "setting": "[1]; of 9 mice", "result": 0},
      {"measurement": "Mean Survival Days", "setting": "[4]; 10 days observation", "result": 6.3, "unit": "days"},
      {"measurement": "Survival Number on Day 1", "setting": "[4]; of 9 mice", "result": 9},
      {"measurement": "Survival Number on Day 2", "setting": "[4]; of 9 mice", "result": 9},
      {"measurement": "Survival Number on Day 3", "setting": "[4]; of 9 mice", "result": 8},
      {"measurement": "Survival Number on Day 4", "setting": "[4]; of 9 mice", "result": 8},
      {"measurement": "Survival Number on Day 5", "setting": "[4]; of 9 mice", "result": 8},
      {"measurement": "Survival Number on Day 6", "setting": "[4]; of 9 mice", "result": 6},
      {"measurement": "Survival Number on Day 7", "setting": "[4]; of 9 mice", "result": 3},
      {"measurement": "Survival Number on Day 8", "setting": "[4]; of 9 mice", "result": 2},
      {"measurement": "Survival Number on Day 9", "setting": "[4]; of 9 mice", "result": 2},
      {"measurement": "Survival Number on Day 10", "setting": "[4]; of 9 mice", "result": 1}
    ]}
  ]
}
